According to patent US20150181901A1, “Compositions and Methods for Tissue Storage” (priority 2012, published 2015):
“And” between values parts separate entries of the source, which are not always exact repeats. Equal values may be shown once.

Legend:
[1] = Freeze/thaw cycling of meat soaked in trehalose solution: fluid loss and weight loss (chicken)
Description: (§1) Variables included the high and low temperatures of the temperature range, and frequency of the freeze/thaw cycles. In one embodiment, treated meat samples were placed in a minus 40 degrees C. freezer for 24 hours, followed by room temperature for 6 hours, which was followed by 18 hours at 0.5 to 5.0 degrees C., in a refrigerator. This cycle was immediately followed by minus 40 degrees C. freezer for 24 h, room temperature for 6 h, which was followed by 18 hours at 0.5 to 5.0 degrees C., in a refrigerator. Chicken breast fillet, pork chops, and London broil beef, were obtained from local suppliers and were cut in water. Each type of meat was cut into four even-sized pieces, and the weight was recorded. Each piece was immersed separately in either water or in test solution, e.g., trehalose or saline, for 12 h. The meat was removed from the water, and excess water was blotted off. Place each sample in a Ziploc® plastic bag. Weights were recorded. The weighed samples were set in a container, and placed in a freezer, where each sample was at the same level (same level relative to the floor of the freezer). The freezer (minus 40 degrees C.) was Puffer Hubbard Model #4017A-U-A, Harris Manufacturing Co., North Billerica, Mass. […] Then, the following steps were used: Repeat Steps 1 to 4 until a total of 14 days have passed. Step 1. After 24 h in the freezer, remove the container bearing all of the samples. Take photographs of the samples and record the date. Thawing occurs when the meat is taken from the freezer and left in the refrigerator. Although the meat is completely thawed prior to 24 hours of incubation in the refrigerator, the time of 24 hours was used to standardize the procedure. Step 2. Place all samples (still in the same container) in refrigerator. Step 3. After in the refrigerator 24 h, then remove the container with all the samples, and take photos and record the date. Step 4. Place samples, still in the same container, in the freezer. As mentioned above, repeat Steps 1 to 4 until a total of 14 days have passed. Step 5. After the last sample photos were taken, samples were removed from its bag, and the weight was recorded after removing excess ice from the sample. The ice is left in the bag. Replace sample in Ziploc® bag. Place all bags at room temperature until all the ice has melted, and pour fluid into clear plastic tube with graduated side (fluid from each bag), and record the volumes of the fluid. Alternatively, volume can be determined with a pipette. Step 6. Place all weighed meat samples into the same Ziploc® bag, and place back in the refrigerator to thaw. After thawing, remove the meat samples from each bag, and pour excess fluid into graduated cylinder tubes (the tubes that held the ice that had melted), and record additional volumes. Between the first week (three freeze/thaw cycles) and the second week (three more freeze/thaw cycles), there was no re-exposure to trehalose. All samples were removed from the refrigerator. Liquid was in most of the sample bags. Fluid was removed by a pipette and the volume was recorded, and the meat sample was weighed. Samples of about 1-2 grams were taken using a no. 10 scalpel, and placed in formalin. FIG. 6 discloses the volume of fluid lost during the second week of freeze/thaw cycles.

[2] = Freeze/thaw cycling of meat soaked in trehalose solution: fluid loss and weight loss (pork); conditions: for weight loss: post 3 freeze/thaw cycles, first week (FIG. 4), 0% trehalose about 10%
Description: as §1

[3] = Freeze/thaw cycling of meat soaked in trehalose solution: fluid loss and weight loss (beef); conditions: for weight loss: post 3 freeze/thaw cycles, first week (FIG. 4), 0% trehalose about 18%
Description: as §1

[4] = 0%, 5%, 10%, 15% trehalose, three freeze/thaw cycles, first week (FIG. 1)
[5] = cumulative, first and second week (FIG. 12)
[6] = second week of freeze/thaw cycles (FIG. 8)
[7] = second week of freeze/thaw cycles, no re-exposure to trehalose

SMILES: OC[C@H]1O[C@H](O[C@H]2O[C@H](CO)[C@@H](O)[C@H](O)[C@H]2O)[C@H](O)[C@@H](O)[C@@H]1O [trehalose, trehalose dihydride]
- loss of water/10 grams of meat ([1]; chicken, 15% trehalose, first week (FIG. 5), 0% trehalose about 1.8): 0.47 mL/10 grams of meat
- trehalose concentration with maximal effect on cumulative weight loss ([1]; chicken, cumulative, first and second week (FIG. 12)): 15%
- effect of trehalose on weight loss ([1]; chicken, first week (FIG. 17)): reduction was about the same (plateau in trehalose effect) for 5%, 10%, and 15% trehalose
- effect of trehalose on weight loss ([1]; chicken, second week (FIG. 17)): weight reduction by trehalose was only found at 10% and 15% trehalose
- trehalose concentration with lowest weight loss ([1]; chicken, second week of freeze/thaw cycles (FIG. 8)): 15%
- trehalose concentration with maximal effect on reducing fluid loss ([1]; chicken, second week of freeze/thaw cycles, no re-exposure to trehalose): 15%
- weight loss ([1]; chicken, soaked in 5%, 10%, or 15% trehalose, post-soak weight vs post 3 freeze/thaw cycles, first week (FIG. 4), 0% trehalose 18%): 10-11%
- effect of trehalose concentration on volume of fluid lost ([1]; poultry, 0%, 5%, 10%, 15% trehalose, three freeze/thaw cycles, first week (FIG. 1)): Increasing the concentration of trehalose resulted in decreasing volumes of fluid lost
- effect of trehalose concentration on volume of fluid lost [2, 4]: Increasing the concentration of trehalose resulted in decreasing volumes of fluid lost
- loss of water/10 grams of meat ([2]; 15% trehalose, first week (FIG. 5), 0% trehalose 1.0): 0.4 mL/10 grams of meat
- trehalose concentration with maximal effect on cumulative weight loss [2, 5]: 15%
- effect of trehalose on weight loss ([2]; first week (FIG. 18)): reduction was progressively effective for 5%, 10%, and 15% trehalose
- effect of trehalose on weight loss ([2]; second week (FIG. 18)): weight reduction seemed to plateau when trehalose was in the range of 5-15% trehalose
- trehalose concentration with lowest weight loss [2, 6]: 5% (or 15%)
- trehalose concentration with maximal effect on reducing fluid loss [2, 7]: 15%
- weight loss ([2]; soaked in 5% trehalose): about 9%
- weight loss ([2]; soaked in 10% trehalose): about 8%
- weight loss ([2]; soaked in 15% trehalose): about 5%
- effect of trehalose concentration on volume of fluid lost [3, 4]: Increasing the concentration of trehalose resulted in decreasing volumes of fluid lost
- loss of water/10 grams of meat ([3]; 10% trehalose, first week (FIG. 5), 0% trehalose about 1.8): about 0.9 mL/10 grams of meat
- fluid loss for the first week relative to fluid loss for the second week ([3]; at each respective trehalose value (FIG. 16)): 2-3 times
- trehalose concentration with maximal reduction in cumulative fluid loss ([3]; cumulative, first and second week): 10% and 10-15%
- trehalose concentration with maximal effect on cumulative weight loss [3, 5]: 10% and 10-15%
- effect of trehalose on weight loss ([3]; first week (FIG. 19)): reduction was progressively effective for 5%, 10%-15% trehalose
- effect of trehalose on weight loss ([3]; second week (FIG. 19)): weight reduction seemed to plateau when trehalose was in the range of 5-15% trehalose
- trehalose concentration with lowest weight loss [3, 6]: 15%
- trehalose concentration with maximal effect on reducing fluid loss [3, 7]: 10%
- weight loss ([3]; soaked in 5% trehalose): ~15%
- weight loss ([3]; soaked in 10% trehalose): about 8%
- weight loss ([3]; soaked in 15% trehalose): about 10%
